Where two headings read alike, the source gives them in different places.
Legend:
[1] = system: human venous whole blood, CD8 positive population (pERK); test: DGK human whole blood pERK assay; assay type: cell-based
Summary of the method: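 Heparinized whole blood from healthy donors preincubated with compound 1 hour at 37° C. Stimulation used anti-CD3 at 1 μg/mL final plus cross-linking goat anti-mouse IgG for 15 minutes. Flow cytometry scored percentage pERK-positive cells among CD8-positive cells.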

[2] = target: Human DGKα(9-727) (Homo sapiens (Human), UniProt P23743); test: biochemical; conditions: Table A; liposome (LIPGLO) assay; read-out: DGKα
Human DGKα(9-727), sequence (P23743 whole entry, looked up): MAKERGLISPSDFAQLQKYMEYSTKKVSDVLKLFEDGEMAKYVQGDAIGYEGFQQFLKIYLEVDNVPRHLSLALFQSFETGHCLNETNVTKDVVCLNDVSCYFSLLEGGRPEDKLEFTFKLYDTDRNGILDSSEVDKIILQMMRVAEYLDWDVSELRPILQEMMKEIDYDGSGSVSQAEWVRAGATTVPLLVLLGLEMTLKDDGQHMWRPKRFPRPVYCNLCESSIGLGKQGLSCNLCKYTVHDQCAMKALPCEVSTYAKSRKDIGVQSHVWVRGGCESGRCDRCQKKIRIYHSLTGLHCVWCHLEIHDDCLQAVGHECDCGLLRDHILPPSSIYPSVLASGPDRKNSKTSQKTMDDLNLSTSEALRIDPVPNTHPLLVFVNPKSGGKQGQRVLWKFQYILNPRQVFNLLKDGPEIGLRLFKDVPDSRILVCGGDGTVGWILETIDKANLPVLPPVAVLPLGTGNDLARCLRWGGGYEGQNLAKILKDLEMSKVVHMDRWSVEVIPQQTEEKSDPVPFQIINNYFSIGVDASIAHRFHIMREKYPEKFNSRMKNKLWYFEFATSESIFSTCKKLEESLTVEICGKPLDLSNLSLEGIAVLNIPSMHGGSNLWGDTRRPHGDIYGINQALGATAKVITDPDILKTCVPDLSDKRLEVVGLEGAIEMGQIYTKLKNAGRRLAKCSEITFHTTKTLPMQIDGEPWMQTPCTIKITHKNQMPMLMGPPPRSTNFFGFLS

[3] = target: human DGKζ (Homo sapiens (Human), UniProt Q13574); test: biochemical; assay type: biochemical; conditions: liposome (LIPGLO) assay
human DGKζ, sequence (Q13574 whole entry, looked up): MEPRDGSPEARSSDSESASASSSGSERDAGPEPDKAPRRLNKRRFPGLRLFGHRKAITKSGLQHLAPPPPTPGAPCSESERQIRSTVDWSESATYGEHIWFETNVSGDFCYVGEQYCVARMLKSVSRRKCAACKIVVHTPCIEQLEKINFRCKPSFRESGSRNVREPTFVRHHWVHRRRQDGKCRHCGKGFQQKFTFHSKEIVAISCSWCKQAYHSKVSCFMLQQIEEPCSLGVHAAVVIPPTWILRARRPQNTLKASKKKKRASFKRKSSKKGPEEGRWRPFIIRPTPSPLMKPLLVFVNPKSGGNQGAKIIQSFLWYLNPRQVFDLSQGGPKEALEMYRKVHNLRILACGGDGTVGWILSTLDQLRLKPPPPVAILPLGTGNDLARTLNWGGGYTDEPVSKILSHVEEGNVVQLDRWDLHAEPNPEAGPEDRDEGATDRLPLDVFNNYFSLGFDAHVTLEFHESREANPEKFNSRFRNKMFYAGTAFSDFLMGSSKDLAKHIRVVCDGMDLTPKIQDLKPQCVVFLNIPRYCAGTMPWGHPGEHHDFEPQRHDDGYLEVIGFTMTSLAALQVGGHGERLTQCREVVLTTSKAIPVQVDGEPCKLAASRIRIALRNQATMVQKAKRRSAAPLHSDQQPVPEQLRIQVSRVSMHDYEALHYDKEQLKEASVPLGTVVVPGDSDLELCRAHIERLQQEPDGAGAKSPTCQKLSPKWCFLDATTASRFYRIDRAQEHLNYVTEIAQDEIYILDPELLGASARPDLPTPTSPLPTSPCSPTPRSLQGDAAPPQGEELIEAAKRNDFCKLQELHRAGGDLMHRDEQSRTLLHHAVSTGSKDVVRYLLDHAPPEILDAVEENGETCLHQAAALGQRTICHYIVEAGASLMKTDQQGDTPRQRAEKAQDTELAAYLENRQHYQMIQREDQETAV

[4] = system: Human venous whole blood (IFN-γ); test: Human whole blood IFN-γ assay; assay type: cell-based
Experimental: Assay 10: Human Whole Blood IFN-γ Assay
Human venous whole blood (22.5 μL per well), obtained from healthy donors, was pre-treated with compounds for one hour at 37° C. in a humidified 95% air/5% CO2 incubator. The blood was stimulated with 2.5 μL anti-human CD3 and anti-CD28 mAb at a final concentration of 1 μg/mL each for 24 hours at 37° C. IFN-γ in the supernatants was measured using AlphLISA kit (Cat #AL217).

[5] = system: naïve human CD8 T cells; test: CellTiter-Glo CD8 T cell proliferation assay; assay type: cell-based; conditions: Homo sapiens, read-out: CD8 GLO Normalized EC50
Experimental: Assay 4: CellTiter-Glo CD8 T Cell Proliferation Assay
Frozen naïve human CD8 T cells were thawed in RPMI+10% FBS, incubated for 2 h in 37° C., and counted. The 384-well tissue culture plate was coated overnight at 4° C. with 20 μl anti-human CD3 at 0.1 μg/mL in plain RPMI, which was removed off the plate before 20 k/40 μL CD8 T cells with 0.5 μg/ml soluble anti-human CD28 were added to each well. The compounds were echoed to the cell plate immediately after the cells were plated. After 72 h incubation at 37° C. incubator, 10 μL CellTiter-glo reagent (Promega catalog number G7570) was added to each well. The plate was vigorously shaken for 5 mins, incubated at room temperature for another 15 mins and read on Envision for CD8 T cell proliferation. In analysis, 0.1 μg/mL anti-CD3 and 0.5 μg/mL anti-CD28 stimulated CD8 T cell signal was background.

[6] = target: DGKα (Homo sapiens (Human), UniProt P23743); test: biochemical; assay type: biochemical; conditions: liposome (LIPGLO) assay
DGKα, sequence (P23743 whole entry, looked up): as the sequence (P23743 whole entry, looked up) above

[7] = read-out: DGK HWB, human whole blood pERK
[8] = read-out: INFg Whole Blood, human whole blood IFN-γ
[9] = Homo sapiens, read-out: INFg Whole Blood, human whole blood IFN-γ
[10] = Homo sapiens, CD8 positive, human whole blood pERK, read-out: DGK HWB

Structure (SMILES)	IC50 [2] [µM]	IC50 ([3]; Table A, read-out: DGKζ) [µM]	EC50 [5] [µM]	further results
CC(C)Oc1ccc(OC2C[C@@H](C)N(c3nc(=O)n(C)c4ccc(C#N)nc34)C[C@H]2C)nc1 (single isomer, unassigned) [Example 245, (±)-Cis-(-4-((5-isopropoxypyridin-2-yl)oxy)-2,5-dimethylpiperidin-1-yl)-1-methyl-2-oxo-1,2-dihydropyrido[3,2-d]pyrimidine-6-carbonitrile]	0.43	0.05		EC50 [1, 7]: 0.8 µM; EC50 [4, 8]: 0.41 µM
CC(C)c1ccc(OC2CCN(c3c([N+](=O)[O-])c(=O)n(C)c4ccc(F)cc34)CC2)cc1 [Example 2, 6-fluoro-4-(4-(4-isopropylphenoxy)piperidin-1-yl)-1-methyl-3-nitroquinolin-2(1H)-one]			0.34	
CC[C@@H]1CN(c2cc(=O)n(C)c3ccc(C#N)nc23)CC[C@H]1Oc1cccc(C(C)(C)C)c1 (single isomer, unassigned) [Example 197]	0.0054	0.25		EC50 ([1]; Homo sapiens, CD8 positive, read-out: DGK HWB, human whole blood pERK): 0.6 µM; IC50 ([6]; Table A, read-out: DGKα): 0.011 µM; EC50 [4, 8]: 0.57 µM
COc1ccc(C(F)(F)F)cc1OC1CCN(c2c([N+](=O)[O-])c(=O)n(C)c3ccc(F)cc23)CC1 [Example 8, 6-fluoro-4-(4-(2-methoxy-5-(trifluoromethyl)phenoxy)piperidin-1-yl)-1-methyl-3-nitroquinolin-2(1H)-one]			0.32	
CC(C)Oc1ccc(OC2C[C@H](C)N(c3nc(=O)n(C)c4ccc(C#N)nc34)C[C@@H]2C)nc1 (mixture of isomers) [Example 246, (±)-Cis-(-4-((5-isopropoxypyridin-2-yl)oxy)-2,5-dimethylpiperidin-1-yl)-1-methyl-2-oxo-1,2-dihydropyrido[3,2-d]pyrimidine-6-carbonitrile]	0.069	0.87		EC50 [1, 7]: 0.83 µM; EC50 [4, 9]: 0.45 µM
Cn1c(=O)c(C#N)c(N2CCC(Oc3ccccc3F)CC2)c2nc(Cl)ccc21 [Example 44, 6-chloro-4-(4-(2-fluorophenoxy)piperidin-1-yl)-1-methyl-2-oxo-1,2-dihydro-1,5-naphthyridine-3-carbonitrile]			1.5	IC50 ([6]; read-out: DGKα LIPGLO IC50): 1.7 µM; IC50 ([3]; read-out: DGKζ LIPGLO IC50): 59 µM
Cn1c(=O)c(C#N)c(N2CCC(Oc3ccc(F)cc3)CC2)c2nc(Cl)ccc21 [Example 20, 6-chloro-4-(4-(4-fluorophenoxy)piperidin-1-yl)-1-methyl-2-oxo-1,2-dihydro-1,5-naphthyridine-3-carbonitrile]			0.87	IC50 ([6]; read-out: DGKα LIPGLO IC50): 0.43 µM; IC50 ([3]; read-out: DGKζ LIPGLO IC50): 16 µM
Cn1c(=O)c([N+](=O)[O-])c(N2CCC(Oc3cccc(F)c3)CC2)c2cc(F)ccc21 [Example 9, 6-fluoro-4-(4-(3-fluorophenoxy)piperidin-1-yl)-1-methyl-3-nitroquinolin-2(1H)-one]			0.79	
Cc1cccc(OC2CCN(c3c([N+](=O)[O-])c(=O)n(C)c4ccc(F)cc34)CC2)c1 [Example 4, 6-fluoro-1-methyl-3-nitro-4-(4-(m-tolyloxy)piperidin-1-yl)quinolin-2(1H)-one]			0.44	
CC(C)c1ccc(OC2CCN(c3c(C#N)c(=O)n(C)c4ccc(Cl)nc34)CC2)cc1 [Example 37, 6-chloro-4-(4-(4-isopropylphenoxy)piperidin-1-yl)-1-methyl-2-oxo-1,2-dihydro-1,5-naphthyridine-3-carbonitrile]			1.1	IC50 ([6]; read-out: DGKα LIPGLO IC50): 0.49 µM; IC50 ([3]; read-out: DGKζ LIPGLO IC50): 240 µM
Cn1c(=O)c([N+](=O)[O-])c(N2CCC(Oc3cccc4[nH]ncc34)CC2)c2cc(F)ccc21 [Example 5, 4-(4-((1H-indazol-4-yl)oxy)piperidin-1-yl)-6-fluoro-1-methyl-3-nitroquinolin-2(1H)-one]			10	
CCC(C)(C)c1ccc(O[C@@H]2CCN(c3c(C#N)c(=O)n(C)c4ccc(C#N)nc34)C[C@H]2C)cc1 (single isomer, unassigned) [Example 231, 5-methyl-8-(trans-3-methyl-4-(4-(tert-pentyl)phenoxy)piperidin-1-yl)-6-oxo-5,6-dihydro-1,5-naphthyridine-2,7-dicarbonitrile (rel)]	1.6	83		EC50 [1, 10]: 0.4 µM; IC50 ([6]; Table A, read-out: DGKα): 0.49 µM; EC50 ([4]; Homo sapiens, human whole blood IFN-γ, read-out: INFg Whole Blood): 0.51 µM
Cc1cccc(OC2CCN(c3c(C#N)c(=O)n(C)c4ccc(Cl)nc34)CC2)c1 [Example 22, 6-chloro-1-methyl-2-oxo-4-(4-(m-tolyloxy)piperidin-1-yl)-1,2-dihydro-1,5-naphthyridine-3-carbonitrile]			0.62	IC50 ([6]; read-out: DGKα LIPGLO IC50): 0.15 µM; IC50 ([3]; read-out: DGKζ LIPGLO IC50): 5.7 µM
CCO[C@H]1CN(c2cc(=O)n(C)c3ccc(C#N)nc23)CC[C@H]1Oc1cccc(C(F)(F)F)c1 (single isomer, unassigned) [Example 370, cis-8-(3-Ethoxy-4-(3-(trifluoromethyl)phenoxy)piperidin-1-yl)-5-methyl-6-oxo-5,6-dihydro-1,5-naphthyridine-2-carbonitrile]	5.1	5.6		EC50 [1, 10]: 6.7 µM
CO[C@H]1CN(c2cc(=O)n(C)c3ccc(C#N)nc23)CC[C@@H]1Oc1ccc(OC(C)C)cn1 (single isomer, unassigned) [Example 269, (±)-trans-8-(4-((5-isopropoxypyridin-2-yl)oxy)-3-methoxypiperidin-1-yl)-5-methyl-6-oxo-5,6-dihydro-1,5-naphthyridine-2-carbonitrile]	0.047	1.5		EC50 [1, 10]: 2.1 µM
Cn1c(=O)c([N+](=O)[O-])c(N2CCC(Oc3cccc(Cl)c3)CC2)c2cc(F)ccc21 [Example 7, 4-(4-(3-chlorophenoxy)piperidin-1-yl)-6-fluoro-1-methyl-3-nitroquinolin-2(1H)-one]			2.3	
CC(C)Oc1ccc(OC2C[C@@H](C)N(c3nc(=O)n(C)c4ccc(C#N)nc34)C[C@H]2C)nc1 (single isomer, unassigned) [Example 244, (±)-Cis-(-4-((5-isopropoxypyridin-2-yl)oxy)-2,5-dimethylpiperidin-1-yl)-1-methyl-2-oxo-1,2-dihydropyrido[3,2-d]pyrimidine-6-carbonitrile]	0.32	0.92		EC50 [1, 7]: 3.1 µM; EC50 [4, 9]: 0.78 µM
CC1CN(c2cc(=O)n(C)c3ccc(C#N)nc23)CCC1N(C)C(=O)c1ccc(F)cc1 (single isomer, unassigned) [Example 285, N-(1-(6-Cyano-1-methyl-2-oxo-1,2-dihydro-1,5-naphthyridin-4-yl)-3-methylpiperidin-4-yl)-4-fluoro-N-methylbenzamide]	30	130		EC50 ([1]; human whole blood pERK, read-out: DGK HWB): 20 µM
Cn1c(=O)c([N+](=O)[O-])c(N2CCC(Oc3cccc(C#N)c3)CC2)c2cc(F)ccc21 [Example 6, 3-((1-(6-fluoro-1-methyl-3-nitro-2-oxo-1,2-dihydroquinolin-4-yl)piperidin-4-yl)oxy)benzonitrile]			10	
COc1ccccc1OC1CCN(c2c(C#N)c(=O)n(C)c3ccc(Cl)nc23)CC1 [Example 35, 6-chloro-4-(4-(2-methoxyphenoxy)piperidin-1-yl)-1-methyl-2-oxo-1,2-dihydro-1,5-naphthyridine-3-carbonitrile]			0.21	IC50 ([6]; read-out: DGKα LIPGLO IC50): 0.29 µM; IC50 ([3]; read-out: DGKζ LIPGLO IC50): 12 µM

Reference: patent US11964973B2 (priority 2019, dated 2024)
